Reference: paper PMC7827406, “Structure–Activity Relationship (SAR) Study of Spautin-1 to Entail the Discovery of Novel NEK4 Inhibitors” (International Journal of Molecular Sciences, 2021)
Where two headings read alike, the source gives them in different places.

Legend:
Test in all cases: biochemical
Design in all cases: Eurofins KinaseProfiler full panel at Km ATP, residual kinase activity (%) relative to DMSO
[1] = target: T1, Aurora-C(h) (Homo sapiens, UniProt Q9UQB9)
T1 construct: gene AURKC
T1 sequence (Q9UQB9 1-309): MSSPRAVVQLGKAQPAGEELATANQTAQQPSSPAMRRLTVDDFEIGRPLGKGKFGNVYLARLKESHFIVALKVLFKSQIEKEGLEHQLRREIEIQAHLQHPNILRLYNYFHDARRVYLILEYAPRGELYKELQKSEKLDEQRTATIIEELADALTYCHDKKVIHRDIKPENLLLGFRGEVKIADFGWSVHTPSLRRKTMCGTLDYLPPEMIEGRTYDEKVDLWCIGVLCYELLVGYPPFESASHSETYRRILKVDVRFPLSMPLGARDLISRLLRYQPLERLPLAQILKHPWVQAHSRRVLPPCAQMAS
Summary of the method: (§1)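 Compounds screened at 10 µM in radiometric kinase activity assays at Km ATP, reported as remaining kinase activity (%). A KINOMEscan competition-binding screen at 10 µM measured DNA-tagged kinase retained on immobilized active-site ligand by qPCR.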

[2] = target: T2, ASK1(h) (Homo sapiens, UniProt Q99683)
T2 construct: gene MAP3K5
T2 sequence (Q99683 1-1374): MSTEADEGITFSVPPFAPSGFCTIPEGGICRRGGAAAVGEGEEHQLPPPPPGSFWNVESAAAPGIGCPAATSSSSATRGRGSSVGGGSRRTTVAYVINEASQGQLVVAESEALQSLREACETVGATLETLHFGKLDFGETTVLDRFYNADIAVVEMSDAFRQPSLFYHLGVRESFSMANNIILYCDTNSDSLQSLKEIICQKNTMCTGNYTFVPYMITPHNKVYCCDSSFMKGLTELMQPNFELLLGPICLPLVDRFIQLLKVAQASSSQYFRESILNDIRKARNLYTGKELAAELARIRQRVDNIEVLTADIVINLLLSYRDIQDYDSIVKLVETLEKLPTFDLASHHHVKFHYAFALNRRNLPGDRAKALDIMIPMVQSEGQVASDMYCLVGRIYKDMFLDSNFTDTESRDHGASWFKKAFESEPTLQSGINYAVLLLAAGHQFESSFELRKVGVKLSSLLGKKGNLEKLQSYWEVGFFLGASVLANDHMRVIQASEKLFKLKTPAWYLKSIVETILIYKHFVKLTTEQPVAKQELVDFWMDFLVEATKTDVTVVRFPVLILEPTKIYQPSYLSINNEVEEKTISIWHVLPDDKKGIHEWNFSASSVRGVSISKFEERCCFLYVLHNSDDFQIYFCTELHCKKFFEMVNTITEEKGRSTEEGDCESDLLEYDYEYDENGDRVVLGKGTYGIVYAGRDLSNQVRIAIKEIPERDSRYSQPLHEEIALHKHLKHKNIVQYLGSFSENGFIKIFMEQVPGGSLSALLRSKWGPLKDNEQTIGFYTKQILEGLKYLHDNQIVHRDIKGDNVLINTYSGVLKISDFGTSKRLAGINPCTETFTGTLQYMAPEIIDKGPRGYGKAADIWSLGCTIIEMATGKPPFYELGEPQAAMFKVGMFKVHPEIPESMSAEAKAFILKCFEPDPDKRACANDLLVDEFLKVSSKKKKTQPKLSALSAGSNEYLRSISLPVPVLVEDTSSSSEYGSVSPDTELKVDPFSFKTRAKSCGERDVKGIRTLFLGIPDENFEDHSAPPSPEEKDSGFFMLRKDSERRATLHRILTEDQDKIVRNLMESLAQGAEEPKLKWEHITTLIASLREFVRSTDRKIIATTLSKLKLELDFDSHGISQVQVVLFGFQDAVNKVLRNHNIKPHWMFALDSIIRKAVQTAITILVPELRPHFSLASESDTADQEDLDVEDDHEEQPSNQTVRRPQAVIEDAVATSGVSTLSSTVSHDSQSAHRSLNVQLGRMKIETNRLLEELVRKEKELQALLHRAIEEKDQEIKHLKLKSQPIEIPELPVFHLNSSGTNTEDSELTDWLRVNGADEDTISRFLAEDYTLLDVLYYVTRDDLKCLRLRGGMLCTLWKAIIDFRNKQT
Summary of the method: as §1

[3] = target: T3, p70S6K(h) (Homo sapiens, UniProt P23443)
T3 construct: gene RPS6KB1
T3 sequence (P23443 whole entry): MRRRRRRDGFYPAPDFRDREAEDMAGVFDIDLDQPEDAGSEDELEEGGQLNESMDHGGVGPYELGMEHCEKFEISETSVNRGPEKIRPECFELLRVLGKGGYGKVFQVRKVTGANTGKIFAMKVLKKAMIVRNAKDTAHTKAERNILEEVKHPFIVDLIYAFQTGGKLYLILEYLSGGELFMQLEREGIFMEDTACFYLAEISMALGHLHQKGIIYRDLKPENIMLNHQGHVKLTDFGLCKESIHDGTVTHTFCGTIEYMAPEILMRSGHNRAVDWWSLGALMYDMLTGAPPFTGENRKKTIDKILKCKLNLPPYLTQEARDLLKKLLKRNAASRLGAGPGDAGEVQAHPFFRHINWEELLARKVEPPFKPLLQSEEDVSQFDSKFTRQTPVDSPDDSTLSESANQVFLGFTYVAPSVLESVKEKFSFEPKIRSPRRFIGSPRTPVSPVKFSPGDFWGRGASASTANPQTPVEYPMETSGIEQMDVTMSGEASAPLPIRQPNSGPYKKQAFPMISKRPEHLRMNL
Summary of the method: as §1

[4] = target: T4, Abl(Y253F)(h) (Homo sapiens, UniProt P00519, Y253F)
T4 construct: gene ABL1
Summary of the method: as §1

[5] = read-out: Residual activity (%) Spautin-1 5aa
[6] = read-out: Residual activity (%) 5as
[7] = read-out: Residual activity (%) 5at
[8] = read-out: Residual activity (%) 5ay

## Fc1ccc(CNc2ncnc3ccc(F)cc23)cc1 [5aa, 6-Fluoro-N-(4-fluorobenzyl)-4-Quinazolinamine]
[1]; [5]
  remaining activity at 10 µM: 120%
[2]; [5]
  remaining activity at 10 µM: 95%
[3]; [5]
  remaining activity at 10 µM: 91%
[4]; [5]
  remaining activity at 10 µM: 106%

## Fc1ccc(CCNc2ncnc3ccc(F)cc23)cc1 [5as, 6-Fluoro-N-[2-(4-Fluorophenyl)Ethyl]-4-Quinazolinamine]
[1]; [6]
  remaining activity at 10 µM: 102%
[2]; [6]
  remaining activity at 10 µM: 85%
[3]; [6]
  remaining activity at 10 µM: 81%
[4]; [6]
  remaining activity at 10 µM: 91%

## Fc1ccc2ncnc(NCCc3ccc(Cl)cc3)c2c1 [5at, N-[2-(4-Chlorophenyl)Ethyl]-6-Fluoro-4-Quinazolinamine]
[1]; [7]
  remaining activity at 10 µM: 118%
[2]; [7]
  remaining activity at 10 µM: 80%
[3]; [7]
  remaining activity at 10 µM: 83%
[4]; [7]
  remaining activity at 10 µM: 71%

## COc1ccc2ncnc(Nc3cccc(F)c3)c2c1 [5ay, N-(3-Fluorophenyl)-6-Methoxy-4-Quinazolinamine]
[1]; [8]
  remaining activity at 10 µM: 106%
[2]; [8]
  remaining activity at 10 µM: 99%
[3]; [8]
  remaining activity at 10 µM: 76%
[4]; [8]
  remaining activity at 10 µM: 66%
